Consider three molecules from ChEMBL document CHEMBL3046435, “Isolation and identification of insecticidal components from Citrus aurantium fruit peel extract” (2008).

The subject of assay [1] is Bactrocera oleae. Nature of the assay: Insecticidal activity against Bactrocera oleae exposed to 1.12 ug/cm2 compound for 12 hr assessed as insect mortality measured 72 hr post dose by petri dish exposure bioassay (reference value: 2 +/- 2%). Type of assay: functional.
The subject of assay [2] is Bactrocera oleae. Nature of the assay: Insecticidal activity against Bactrocera oleae exposed to 0.45 ug/cm2 compound for 12 hr assessed as insect mortality measured 72 hr post dose by petri dish exposure bioassay (reference value: 2 +/- 2%). The format is functional, organism-based.
Assay [3] concerns Bactrocera oleae. Nature of the assay: Insecticidal activity against Bactrocera oleae exposed to compound for 12 hr assessed as insect mortality measured 72 hr post dose by petri dish exposure bioassay (reference value: 2 +/- 2%). Type of assay: functional, organism-based.

Activity calls are given as the source filed them. The rule behind the calls is not given here.

The term mortality denotes the percentage killed.

Regarding `C/C(=C\COc1c2ccoc2cc2oc(=O)ccc12)CCC1OC1(C)C` (centres undefined) [6',7'-EPOXYBERGAMOTTIN], the mortality in the assay with Bactrocera oleae [1] was 48%. Regarding `COc1ccc2ccc(=O)oc2c1CC=C(C)C`, the outcome with Bactrocera oleae [2] was inactive. For the molecule `COc1c2ccoc2cc2oc(=O)ccc12`, the result with Bactrocera oleae [3] and in the assay with Bactrocera oleae [2] was inactive.
